Patent US20230233576A1, “ECLITASERTIB FOR USE IN TREATING CONDITIONS INVOLVING SYSTEMIC HYPERINFLAMMATORY RESPONSE” (priority 2020, published 2023)

Key:
SIRS = assay: acute mouse model of SIRS; format: in vivo
Source text: The RIPK1 Inhibitor was studied in an acute mouse model of SIRS. […] There is also rationale that vascular permeability and endothelial dysfunction contribute to SIRS/shock and lethality. […] Additional clinical evidence for the role of RIPK1 in driving systemic inflammation comes from evidence in a rare population of patients that have a mutation in RIPK1 that blocks caspase-mediated cleavage and leads to hyperactivation of this kinase. These patients have periodic fevers with coinciding elevations of cytokines including IL-6 and elevated levels of pRIPK1 in their PBMCs. Patient-derived cells are responsive to RIPK1 kinase inhibition, and some patients are responsive to anti-IL-6 therapy.

[1] = test system: adult participants hospitalized for severe COVID-19; assay: Phase 1b severe COVID-19 study: clinical laboratory abnormalities (PCSA); format: in vivo, human; conditions: TEAE period
Protocol: Standard clinical laboratory parameters (hematology, blood chemistry) were measured per protocol.
For laboratory parameters (hematology, clinical chemistry, and urinalysis), vital signs, and ECG, incidences of potentially clinically significant abnormality (PCSA) values, actual values and change from baseline were summarized by treatment group.
For all laboratory, vital signs and ECG parameters, raw data and change from baseline were summarized in descriptive statistics by treatment group and scheduled time of measurement, with the exception of AST, ALT and alkaline phosphatase: instead of summarizing data in descriptive statistics, participants' profiles were presented through graphics by treatment group and with a color code to identify sites. The reason was that blood samples were processed by local laboratories with different normal ranges. For the rest of clinical laboratory these parameters it is reasonable to pool data as they are standard procedure and no significant differences in normal ranges were expected.

[2] = abnormal baseline (LLN/ULN or PCSA), 600 mg (N = 47), safety population
[3] = all baseline values counted in one unique group (as normal), 600 mg (N = 47), safety population
[4] = missing baseline, 600 mg (N = 47), safety population
[5] = normal baseline, 600 mg (N = 47), safety population

## CN1C(=O)[C@@H](NC(=O)c2nnc(Cc3ccccc3)[nH]2)COc2cccnc21 [RIPK1 Inhibitor, (S)-5-benzyl-N-(5-methyl-4-oxo-2,3,4,5-tetrahydropyrido[3,2-b][1,4]oxazepin-3-yl)-4H-1,2,4-triazole-3-carboxamide]
SIRS
  SIRS induction: dose-dependently blocked and at the highest dose completely abolished
[1]; 600 mg
  participants with ALT>3 ULN: 9 participants
  participants with ALT>5 ULN: 1 participants
  participants with AST>5 ULN: 1 participants
  participants with PCSAs of AST>3 ULN: 2 participants
  participants with alkaline phosphatase>1.5 ULN: 2 participants
  participants with total bilirubin>1.5 ULN: One
[1]; [2]
  PCSA Alanine Aminotransferase (ALT) >3 ULN: 7/20
  PCSA Alanine Aminotransferase (ALT) >5 ULN: 0/20
  PCSA Alanine Aminotransferase (ALT) >10 ULN: 0/20
  PCSA Alanine Aminotransferase (ALT) >20 ULN: 0/20
  PCSA Albumin ≤25 g/L: 0/28
  PCSA Alkaline Phosphatase >1.5 ULN: 0/0
  PCSA Aspartate Aminotransferase (AST) >3 ULN: 1/24
  PCSA Aspartate Aminotransferase (AST) >5 ULN: 0/24
  PCSA Aspartate Aminotransferase (AST) >10 ULN: 0/24
  PCSA Basophils >0.1 * 10^9/L: 0/0
  PCSA C-Reactive Protein >2 ULN or >10 mg/L (if ULN not provided): 42/46
  PCSA Conjugated bilirubin >35% Bilirubin and Bilirubin >1.5 ULN: 0/0
  PCSA Creatinine Clearance (CG) <15 mL/min (end stage renal disease): 0/18
  PCSA Creatinine Clearance (CG) ≥15-<30 mL/min (severe decrease in GFR): 0/18
  PCSA Creatinine Clearance (CG) ≥30-<60 mL/min (moderate decrease in GFR): 4/18
  PCSA Creatinine Clearance (CG) ≥60-<90 mL/min (mild decrease in GFR): 11/18
  PCSA Creatinine ≥150 μmol/L (Adults): 1/8
  PCSA Eosinophils >0.5 * 10^9/L or >ULN (if ULN ≥ 0.5 * 10^9/L): 0/9
  PCSA Erythrocyte Count (RBC) ≥6 * 10^12/L: 1/17
  PCSA Glucose ≤3.9 mmol/L and <LLN: 1/33
  PCSA Glucose ≥11.1 mmol/L (unfasted); ≥7 mmol/L (fasted): 18/33
  PCSA Hematocrit ≤0.37 v/v (Male); ≤0.32 v/v (Female): 11/17
  PCSA Hematocrit ≥0.55 v/v (Male); ≥0.5 v/v (Female): 0/17
  PCSA Hemoglobin ≤115 g/L (Male); ≤95 g/L (Female): 4/18
  PCSA Hemoglobin ≥185 g/L (Male); ≥165 g/L (Female): 0/18
  PCSA Lymphocytes >4 * 10^9/L: 2/11
  PCSA Monocytes >0.7 * 10^9/L: 6/10
  PCSA Neutrophils <1.5 * 10^9/L (Non-Black); <1 * 10^9/L (Black): 0/8
  PCSA Platelet Count <100 * 10^9/L: 1/11
  PCSA Platelet Count ≥700 * 10^9/L: 1/11
  PCSA Potassium <3 mmol/L: 0/7
  PCSA Potassium ≥5.5 mmol/L: 1/7
  PCSA Sodium ≤129 mmol/L: 0/8
  PCSA Sodium ≥160 mmol/L: 0/8
  PCSA Total Bilirubin >1.5 ULN: 0/2
  PCSA Total Bilirubin >2 ULN: 0/2
  PCSA White blood cell count <3 * 10^9/L (Non-Black); <2 * 10^9/L (Black): 0/10
  PCSA White blood cell count ≥16 * 10^9/L: 1/10
[1]; [3]
  PCSA Creatinine ≥30% change from baseline: 3/47
  PCSA Creatinine ≥100% change from baseline: 0/47
  PCSA Hemoglobin Decrease from baseline ≥20 g/L: 4/47
[1]; [4]
  PCSA Alanine Aminotransferase (ALT) >3 ULN: 0/0
  PCSA Alanine Aminotransferase (ALT) >5 ULN: 0/0
  PCSA Alanine Aminotransferase (ALT) >10 ULN: 0/0
  PCSA Alanine Aminotransferase (ALT) >20 ULN: 0/0
  PCSA Albumin ≤25 g/L: 0/0
  PCSA Alkaline Phosphatase >1.5 ULN: 0/0
  PCSA Aspartate Aminotransferase (AST) >3 ULN: 0/0
  PCSA Aspartate Aminotransferase (AST) >5 ULN: 0/0
  PCSA Aspartate Aminotransferase (AST) >10 ULN: 0/0
  PCSA C-Reactive Protein >2 ULN or >10 mg/L (if ULN not provided): 0/0
  PCSA Conjugated bilirubin >35% Bilirubin and Bilirubin >1.5 ULN: 0/1
  PCSA Glucose ≤3.9 mmol/L and <LLN: 0/3
  PCSA Glucose ≥11.1 mmol/L (unfasted); ≥7 mmol/L (fasted): 3/3
  PCSA Total Bilirubin >1.5 ULN: 0/0
  PCSA Total Bilirubin >2 ULN: 0/0
[1]; [5]
  PCSA Alanine Aminotransferase (ALT) >3 ULN: 2/27
  PCSA Alanine Aminotransferase (ALT) >5 ULN: 1/27
  PCSA Alanine Aminotransferase (ALT) >10 ULN: 0/27
  PCSA Alanine Aminotransferase (ALT) >20 ULN: 0/27
  PCSA Albumin ≤25 g/L: 0/18
  PCSA Alkaline Phosphatase >1.5 ULN: 2/46
  PCSA Aspartate Aminotransferase (AST) >3 ULN: 1/23
  PCSA Aspartate Aminotransferase (AST) >5 ULN: 1/23
  PCSA Aspartate Aminotransferase (AST) >10 ULN: 0/23
  PCSA Basophils >0.1 * 10^9/L: 3/29
  PCSA C-Reactive Protein >2 ULN or >10 mg/L (if ULN not provided): 0/1
  PCSA Conjugated bilirubin >35% Bilirubin and Bilirubin >1.5 ULN: 0/46
  PCSA Creatinine Clearance (CG) <15 mL/min (end stage renal disease): 0/29
  PCSA Creatinine Clearance (CG) ≥15-<30 mL/min (severe decrease in GFR): 0/29
  PCSA Creatinine Clearance (CG) ≥30-<60 mL/min (moderate decrease in GFR): 0/29
  PCSA Creatinine Clearance (CG) ≥60-<90 mL/min (mild decrease in GFR): 5/29
  PCSA Creatinine ≥150 μmol/L (Adults): 0/39
  PCSA Eosinophils >0.5 * 10^9/L or >ULN (if ULN ≥ 0.5 * 10^9/L): 1/20
  PCSA Erythrocyte Count (RBC) ≥6 * 10^12/L: 0/30
  PCSA Glucose ≤3.9 mmol/L and <LLN: 1/10
  PCSA Glucose ≥11.1 mmol/L (unfasted); ≥7 mmol/L (fasted): 5/10
  PCSA Hematocrit ≤0.37 v/v (Male); ≤0.32 v/v (Female): 4/30
  PCSA Hematocrit ≥0.55 v/v (Male); ≥0.5 v/v (Female): 0/30
  PCSA Hemoglobin ≤115 g/L (Male); ≤95 g/L (Female): 1/29
  PCSA Hemoglobin ≥185 g/L (Male); ≥165 g/L (Female): 0/29
  PCSA Lymphocytes >4 * 10^9/L: 3/18
  PCSA Monocytes >0.7 * 10^9/L: 12/19
  PCSA Neutrophils <1.5 * 10^9/L (Non-Black); <1 * 10^9/L (Black): 2/21
  PCSA Platelet Count <100 * 10^9/L: 0/36
  PCSA Platelet Count ≥700 * 10^9/L: 0/36
  PCSA Potassium <3 mmol/L: 0/40
  PCSA Potassium ≥5.5 mmol/L: 4/40
  PCSA Sodium ≤129 mmol/L: 1/39
  PCSA Sodium ≥160 mmol/L: 0/39
  PCSA Total Bilirubin >1.5 ULN: 1/45
  PCSA Total Bilirubin >2 ULN: 0/45
  PCSA White blood cell count <3 * 10^9/L (Non-Black); <2 * 10^9/L (Black): 1/37
  PCSA White blood cell count ≥16 * 10^9/L: 2/37
